{"source": "patent US20090075272A1", "about": "“Method to Identify CD40-Sensitive Cells Using Gene Expression” (priority 2007, published 2009)", "key": {"OCI-Ly7 cells [1]": {"system": "OCI-Ly7 cells", "test": "Inhibition of CD40-mediated apoptosis by kinase inhibitors (viable cell count)", "format": "cell-based, human", "conditions": "96 hours CD40 stimulation, U0126 10 μM, PD98059 50 μM, SB203580 10 μM added 30 minutes prior", "procedure": "(§1) FIG. 10 is a bar graph showing the effect of ERK inhibition on CD40-mediated apoptosis. Cells were subjected to CD40 stimulation for 96 hours in the presence of the MEK1/2 inhibitors U0126 (10 μM) or PD98059 (50 μM), or the p38 inhibitor SB203580 (10 μM). Cell viability was quantitated by staining nonpermeabilized cells with propidium iodide, and counting the number of unstained (live) cells per unit volume using a Becton-Dickinson FACScan flow cytometer set to count for 30 seconds. The number of viable cells in anti-CD40-treated samples was expressed as a percentage of the number of viable cells incubated in secondary antibody only. Results from three experiments of four replicates each are shown. Error bars represent standard deviations. […] Constitutive ERK phosphorylation is correlated with CD40-mediated cell death.\n(§2) Cells were resuspended at 1×10^5 cells/mL in RPMI 1640 medium supplemented as described above. Anti-CD40 antibody G28.5 and secondary crosslinking antibody HB58 were added to a final concentration of 10 μg/mL each, and the cells were incubated at 37° C. At 24 hour intervals aliquots of cells were harvested by centrifugation, washed once in phosphate buffered saline, and resuspended in FACS buffer. Non-permeabilized cells were stained by addition of 1 μg/mL propidium iodide, and the density of viable cells was determined using a FACScan flow cytometer and CellQuest software (Becton Dickinson, Mississauga, ON, Canada) set to count for a fixed 30-second time interval. To determine the fraction of cells that had undergone apoptosis, total intracellular DNA content was measured by propidium iodide staining of ethanol-permeabilized cells as previously described (16). Expression of CD40 on the cell surface was confirmed by staining non-permeabilized cells with a phycoerythrin-linked anti-CD40 antibody (clone 5C3, Becton-Dickinson) as per the manufacturer's directions, followed by flow cytometry."}, "Su-DHL4 cells [2]": {"system": "Su-DHL4 cells", "test": "Inhibition of CD40-mediated apoptosis by kinase inhibitors (viable cell count)", "format": "cell-based, human", "conditions": "96 hours CD40 stimulation, U0126 10 μM, PD98059 50 μM, SB203580 10 μM added 30 minutes prior", "procedure": "as §1, §2"}, "OCI-Ly7 cells [3]": {"system": "OCI-Ly7 cells", "test": "Growth inhibition by kinase inhibitors (MTT assay)", "format": "cell-based, human", "conditions": "96 hours; inhibitor 10^−4 to 10^−8 M", "source_text": "(§3) Error bars indicate standard deviations."}, "Su-DHL4 cells [4]": {"system": "Su-DHL4 cells", "test": "Growth inhibition by kinase inhibitors (MTT assay)", "format": "cell-based, human", "conditions": "96 hours; inhibitor 10^−4 to 10^−8 M", "source_text": "as §3"}, "[5]": {"system": "phosphorylated ERK in Su-DHL4 cells", "conditions": "10 μM, 48 hours", "experimental": "Cells were permeabilized in Cytofix/Cytoperm (Becton-Dickinson) for 20 minutes, and stained with anti-phospho-ERK antibody (Cell Signaling Technology #9101) and FITC-conjugated anti-rabbit secondary antibody (Cedarlane Laboratories, Hornby, ON, CA) following the manufacturers' instructions. The stained cells were analyzed by flow cytometry with a FACScan flow cytometer and CellQuest software.\nThis hypothesis was tested using pharmacologic inhibitors of MEK. Su-DHL4 cells were incubated in the presence of 10 μM U0126 for 48 hours, permeabilized and stained with an anti-phospho-ERK antibody."}, "[6]": {"system": "CD40-sensitive and CD40-resistant DLCBL lines (OCI-Ly1, OCI-Ly7, OCI-Ly8, Su-DHL4)", "conditions": "96 hours; inhibitor 10^−4 to 10^−8 M", "experimental": "Sensitivity of the cell lines to inhibition of LCK and ERK activity was tested by addition of the src family kinase inhibitor PP1 or the MEK1/2 inhibitor U0126. Cells were incubated for 96 hours in inhibitor concentrations ranging from 10^−4 to 10^−8 M, and viability was assessed by MTT [3-(4,5-dimethylthiazol-2-yl)-2,5-diphenyltetrazolium bromide] assay. Viability is expressed as a percentage of the absorbance at 570 nm as compared to untreated samples. Results of two experiments with quadruplicate samples each were combined. Error bars indicate standard deviations.\nThe src family kinase inhibitor PP1 and the MEK inhibitor U0126 were purchased from Biomol (Plymouth Meeting, Pa., USA), and from Cell Signaling Technology (Beverly, Mass., USA) respectively. Kinase inhibition assays were performed using cells seeded at a density of 5×10^4 per mL in 96-well plates, to which kinase inhibitors were added to final concentrations of 10^−4 to 10^−8 M. The treated cells were incubated at 37° C. for 96 hours and cell viability was quantitated by MTT assay as previously described (17)."}, "Su-DHL4 cells [7]": {"system": "Su-DHL4 cells", "test": "Cell death after treatment with calcium ionophore", "format": "cell-based, human"}}, "note": "“Also recorded” adds a separate entry of the source.", "data": [{"smiles": "COc1cccc(-c2cc(=O)c3ccccc3o2)c1N", "note": "[PD98059]", "values": [{"measurement": "CD40-mediated cell death (viable cells in anti-CD40-treated samples vs secondary antibody only)", "setting": "OCI-Ly7 cells [1]", "result": "prevented CD40-mediated reduction in viability"}, {"measurement": "CD40-mediated cell death (viable cells in anti-CD40-treated samples vs secondary antibody only)", "setting": "OCI-Ly7 cells [1]; listed as PD98058", "result": "reduced CD40-mediated cell death"}, {"measurement": "CD40-mediated cell death (viable cells in anti-CD40-treated samples vs secondary antibody only)", "setting": "Su-DHL4 cells [2]", "result": "prevented CD40-mediated reduction in viability"}, {"measurement": "CD40-mediated cell death (viable cells in anti-CD40-treated samples vs secondary antibody only)", "setting": "Su-DHL4 cells [2]; listed as PD98058", "result": "reduced CD40-mediated cell death"}]}, {"smiles": "Cc1ccc(-c2nn(C(C)(C)C)c3ncnc(N)c23)cc1", "note": "[PP1]", "values": [{"measurement": "growth (viability by MTT assay)", "setting": "OCI-Ly7 cells [3]", "result": "more effective at reducing proliferation; also recorded: inhibited by PP1 more efficiently than growth of CD40-resistant OCI-Ly1 and OCI-Ly8 cells"}, {"measurement": "growth (viability by MTT assay)", "setting": "Su-DHL4 cells [4]", "result": "more effective at reducing proliferation; also recorded: inhibited by PP1 more efficiently than growth of CD40-resistant OCI-Ly1 and OCI-Ly8 cells"}]}, {"smiles": "C[S+]([O-])c1ccc(-c2nc(-c3ccncc3)c(-c3ccc(F)cc3)[nH]2)cc1", "note": "(stereo not shown) [SB203580]", "values": [{"measurement": "CD40-mediated cell death (viable cells in anti-CD40-treated samples vs secondary antibody only)", "setting": "OCI-Ly7 cells [1]", "result": "reduced by CD40 ligation"}, {"measurement": "CD40-mediated cell death (viable cells in anti-CD40-treated samples vs secondary antibody only)", "setting": "Su-DHL4 cells [2]", "result": "reduced by CD40 ligation"}]}, {"smiles": "N#CC(=C(/N)Sc1ccccc1N)/C(C#N)=C(\\N)Sc1ccccc1N", "note": "[U0126]", "values": [{"measurement": "CD40-mediated cell death (viable cells in anti-CD40-treated samples vs secondary antibody only)", "setting": "OCI-Ly7 cells [1]", "result": "prevented CD40-mediated reduction in viability; also recorded: reduced CD40-mediated cell death"}, {"measurement": "CD40-mediated cell death (viable cells in anti-CD40-treated samples vs secondary antibody only)", "setting": "Su-DHL4 cells [2]", "result": "prevented CD40-mediated reduction in viability; also recorded: reduced CD40-mediated cell death"}, {"measurement": "phosphorylation of ERK", "setting": "[5]", "result": "reduced"}, {"measurement": "differential effects on growth of CD40-sensitive and CD40-resistant DLCBL lines", "setting": "[6]", "result": "did not show differential effects"}]}, {"smiles": "C[C@H](CCC(=O)O)C[C@H](C)C[C@H](C)C(=O)/C=C(\\O)[C@H](C)C[C@H](C)C/C=C/[C@@H](C)[C@@H](O)[C@@H](C)[C@@H](O)C[C@@H]1CC[C@@](C)([C@H]2CC[C@@](C)([C@@H](C)O)O2)O1", "note": "[ionomycin]", "values": [{"measurement": "cell death", "setting": "Su-DHL4 cells [7]", "result": "induced cell death"}]}]}
